Measurements from the CATMoS acute toxicity set (Mansouri et al. 2021).

Key:
[1] = rat acute oral toxicity; conditions: in vivo
Excerpt: […]The data set underlying the modeling effort for this project was initially compiled by NICEATM and U.S. EPA’s CCTE. Briefly, LD50 data were collected from rat acute oral systemic toxicity tests, including limit tests, ranges/confidence intervals, and discrete LD50 values. The full data set included 21,200 LD50 entries for 15,688 substances. […] Data were reviewed to ensure that LD50 values with obvious errors in the extracted data such as unit conversion errors (e.g., comma and decimal separator misplacements) were either fixed or removed. After this review, 16,209 LD50 values remained. Many of the chemicals represented had multiple LD50 entries, requiring that a single representative value per Chemical Abstracts Service Registry Number (CASRN) identifier be defined to facilitate modeling efforts. Based on ATWG feedback and to define the representative LD50 as a protective value while accounting for the distribution across multiple LD50s, the median of the lowest quartile was computed using only discrete LD50 values (omitting limit test data and range and confidence interval data). A detailed summary of the data compilation is available online on the NICEATM webpage dedicated to the collaborative modeling project (NTP 2020).
[…][…] For categorical designations, limit test and range/confidence interval LD50 data were integrated wherever possible. As such, the number of chemicals with end point values/calls varies across the modeling end points (Table 3) based on whether chemicals had representative LD50 values and/or other data. If a chemical had both, the representative value was used to determine categorical calls rather than limit test data. Some data were useable only for certain end points and categories depending on the thresholds. For example, ranges that spanned multiple hazard categories were considered only for the binary (very toxic/nontoxic) end points and omitted from rendering a determination for hazard category assignment.
[…]The final data set comprising 11,992 chemicals was split into training and evaluation sets […], respectively. This process was performed semirandomly by ordering chemicals based on the five end points (categorical and continuous LD50 values) and partitioning every fourth record into the evaluation set accordingly. This approach was taken to ensure an equivalent distribution of the LD50 values and the different hazard categories between the training and the evaluation sets without supervised sampling of the chemicals based on structures (Figure 1A). The sources of the chemical structures were also kept equivalent between the two sets, with chemical structures obtained from DSSTox, being the highest quality, representing over 75% of each set (Figure 1B).

[2] = GHS categories as the set defines them, by LD50: 1 up to 5, 2 up to 50, 3 up to 300, 4 up to 2000, 5 above 2000 mg/kg; conditions: rat; in vivo; po

Row | SMILES | LD50 [1] | GHS category [2]
1 | Cc1cc(Cl)ccc1OCCCC(=O)O | 680 mg/kg | –
2 | C/C1=C\[C@@H](C)C/C=C/[C@H]2[C@@H]3O[C@]3(C)[C@@H](C)[C@H]3[C@H](Cc4c[nH]c5ccccc45)NC(=O)[C@]32C(=O)/C=C/C(=O)[C@@H]1O | – | 4
3 | CCOC(=O)C(=O)Nc1cc(OC)nc(-c2ccccc2)n1 | – | 4
4 | FC(F)(F)C(F)(F)C(F)(F)C(F)(F)N(C(F)(F)C(F)(F)C(F)(F)C(F)(F)F)C(F)(F)C(F)(F)C(F)(F)C(F)(F)F | – | 5
5 | CC(=O)OC1C(N2CCCC2)CC2C3CCC4CC(O)C(N5CCOCC5)CC4(C)C3CCC21C (centres undefined) | – | 5
6 | CCN(Cc1cccc(S(=O)(=O)O)c1)c1ccc(C(=C2C=CC(=[N+](CC)Cc3cccc(S(=O)(=O)O)c3)C=C2)c2ccccc2S(=O)(=O)[O-])cc1 | – | 5
7 | CCCCCCOC(=O)C(C)(C)C | – | 5
8 | Cc1cc(-c2ccc(N=C=O)c(C)c2)ccc1N=C=O | – | 5
9 | CCOC(=O)c1ccc(NC(=O)C=C(C)C=CC=C(C)C=CC2=C(C)CCCC2(C)C)cc1 | – | 5
10 | O=C(Nc1ccc(Cl)cc1)c1cc2ccccc2cc1O | – | 5
11 | C[C@@H]1CN(c2c(F)c(N)c3c(=O)c(C(=O)O)cn(C4CC4)c3c2F)C[C@H](C)N1 (racemic) | – | 5
12 | Cn1c2cc(C(F)(F)F)ccc2c2oc(C(=O)NCCCN3CCCCC3)cc21 | – | 4
13 | C#CCOC(=O)Nc1nc(N2CC=CCC2)cc2nc(=O)on12 | – | 5
14 | O=S(=O)(O)CCN1CCN(CCO)CC1 | – | 5
15 | CCCOC(C)OCCC | – | 5
16 | c1ccc(CSCc2ccccc2)cc1 | – | 5
17 | COCC(=O)N(c1c(C)cccc1C)[C@H](C)C(=O)OC | – | 4
18 | c1ccc2oc(C3(Cn4cncn4)OCCCO3)cc2c1 | – | 4
19 | CC(=O)OCC1=C(C(=O)O)N2C(=O)[C@@H](N)[C@H]2SC1 | – | 5
20 | C=Cc1ccc(O)c(C=C)c1 | – | 5
21 | O=C(O)COc1ccc(Cl)cc1CO | – | 5
22 | CC(=O)Oc1ccccc1C(=O)Nc1ncc([N+](=O)[O-])s1 | – | 5
23 | CCCCCCOC(=O)CC(C)C | – | 5
24 | O=C(c1ccc(Cl)cc1)n1ccnc1-c1ccccc1 | – | 4
25 | CCCCCCCCCCCCCCCCCC(=O)OC[C@@H](OC(=O)CCCCCCCCCCCCCCCCC)[C@H]1OC[C@H](O)[C@H]1OC(=O)CCCCCCCCCCCCCCCCC | – | 5

Row | SMILES | LD50 [1] | GHS category [2]
26 | NS(=O)(=O)c1cc2c(cc1Cl)N=C(CSCc1ccccc1)NS2(=O)=O | – | 5
27 | CCCC(Cl)CCCC(Cl)CCC(Cl)CCC(Cl)CCC(Cl)CCCC(Cl)CCC (centres undefined) | – | 5
28 | COc1cc(-c2cc(OC)cc(C(C)(C)C)c2O)c(O)c(C(C)(C)C)c1 | – | 5
29 | CCn1cc[n+](C)c1 | – | 5
30 | CC(C)(C1CCCO1)C1CCCO1 (centres undefined) | – | 4
31 | CNc1ccc(C(=O)c2ccc(Cl)cc2)cc1O | – | 5
32 | COC(=O)C(C=O)c1ccccc1 (centres undefined) | – | 4
33 | Fc1ccc(N/C(=N/C2CCCCC2)c2ccccc2)cc1 | – | 5
34 | CC(C)=CCN(CC=C(C)C)CCC(CCN(CC=C(C)C)CC=C(C)C)(C(N)=O)c1cccc2ccccc12 | – | 4
35 | O=C(O)CCn1nc2ccccn2c1=O | – | 5
36 | CC(C)(c1ccccc1)c1cc(-n2nc3ccccc3n2)c(O)c(C(C)(C)c2ccccc2)c1 | – | 5
37 | C#CCC(O[Si](CC)(CC)CC)[Si](CC)(CC)CC (centres undefined) | – | 5
38 | CC(C)(C)OOC(C)(C)C | – | 5
39 | C[C@@]12CC[C@@H]3[C@H](CC=C4C[C@H](OS(=O)(=O)O)CC[C@]43C)[C@H]1CCC2=O (racemic) | – | 5
40 | Cc1ccc(Cl)cc1NC(=O)c1cc2ccccc2cc1O | – | 5
41 | C[C@]12C[C@@H](O)[C@H]3[C@@H](CCC4=CC(=O)CC[C@@H]43)[C@@H]1CCC2=O | – | 4
42 | C[C@@H]1[C@@H](c2ccc(Cl)cc2)SC(=O)N1C(=O)NC1CCCCC1 (single isomer, unassigned) | – | 5
43 | CN1C(=O)COc2cc(C(=O)C=Cc3ccccc3)ccc21 | – | 5
44 | CCCCCCC(C)C=O (centres undefined) | – | 5
45 | O=C(O)CCC(=O)O | – | 5
46 | C=CC(C)(CCC=C(C)CC)OC(C)=O (centres undefined) | – | 5
47 | C=CCC(C)C | – | 5
48 | CC1=NN(c2cccc(S(=O)(=O)O)c2)C(=O)C1/N=N/c1cc(Cl)c(C)cc1S(=O)(=O)O (centres undefined) | – | 5
49 | CCOC[C@@H]1CO[C@@](Cn2ccnc2)(c2cc3cc(Cl)cc(Cl)c3o2)O1 | – | 4
50 | C=C[Si](C)(C)O[Si](C)(C)C=C | – | 5

Row | SMILES | LD50 [1] | GHS category [2]
51 | FC(F)(F)c1cccc(C(F)(F)F)c1 | – | 5
52 | CC(C)=CCN(CC=C(C)C)CCC(C#N)(CC=C(C)C)c1cccc2ccccc12 (centres undefined) | – | 4
53 | Cc1cccc(C)c1OP(=O)(Oc1c(C)cccc1C)Oc1c(C)cccc1C | – | 5
54 | COc1ccccc1C1C(Cl)C(=O)N1NC(=O)c1ccccc1O (centres undefined) | – | 5
55 | CCO[Si](C)(OCC)OCC | – | 5
56 | CCN(CC)C(=O)CCCn1nnnc1C | – | 4
57 | Nc1nc(/C(=C/CC(=O)O)C(=O)N[C@@H]2C(=O)N3C(C(=O)O)=CCS[C@H]23)cs1 | – | 5
58 | CC/C(=C(/CC)c1ccc(O)cc1)c1ccc(O)cc1 | – | 5
59 | CCCCCCCCCCCC(=O)N(C)CC(=O)O | – | 5
60 | CC(C)c1c(C(=O)Nc2ccccc2)c(-c2ccccc2)c(-c2ccc(F)cc2)n1CC[C@@H]1C[C@H](CC(=O)OC(C)(C)C)OC(C)(C)O1 | – | 5
61 | COC(=O)c1ccc(C(=O)OC)c([N+](=O)[O-])c1 | – | 5
62 | CCCCCCCCCCCC | – | 5
63 | C=CCNC(=O)Oc1cccc2c1OC(C)(C)O2 | – | 4
64 | COC(=O)c1ccc(C#N)cc1[N+](=O)[O-] | – | 5
65 | O=c1c2ccccc2c(=O)c2c1cc(Cl)c1[nH]c3c([nH]c12)c(Cl)cc1c(=O)c2ccccc2c(=O)c13 | – | 5
66 | CC(=O)CC(=O)OCCOC(=O)CC(C)=O | – | 5
67 | CCCCC(C)OP(=S)(OC)OC (centres undefined) | – | 4
68 | CC(=O)Oc1ccc(C(=C2CCCCC2)c2ccc(OC(C)=O)cc2)cc1 | – | 5
69 | CC(=O)N(C)C(=O)Oc1cccc2c1OC(C)(C(C)(C)C)O2 (centres undefined) | – | 4
70 | O=C(O)[C@@H]1C[C@@H](C2CCCCC2)CN1 | – | 5
71 | OCC1CN2CCN1CC2 (centres undefined) | – | 5
72 | O=C1c2ccccc2C(=O)C1c1ccc2ccccc2n1 | – | 5
73 | CC(C)CCCCCC(=O)NCCCCCC(=O)O | – | 5
74 | N#Cc1cccc(C2=C3C(=O)NC(c4cccc(C#N)c4)=C3C(=O)N2)c1 | – | 5
75 | CCC(Oc1ccc(F)c(C(F)(F)F)c1)C(O)=NCc1ccccc1 (centres undefined) | – | 5

Row | SMILES | LD50 [1] | GHS category [2]
76 | COc1ccc2c(c1)CCN(c1ccccc1)C2c1ccc(Br)cc1 (centres undefined) | – | 4
77 | CCCc1nc2ccnn2c(NCCN2CCCC2)c1Cc1ccc(-c2ccccc2-c2nn[nH]n2)cc1 | – | 4
78 | CCCCNC(=O)c1cnc2cccc(C)n2c1=O | – | 3
79 | O=C(O)CCCCC(=O)O | – | 5
80 | CCOC(=O)C1=C(COCCN2C(=O)c3ccccc3C2=O)NC(C)=C(C(=O)OC)C1c1ccccc1Cl (centres undefined) | – | 5
81 | CCCCCCCC/C=C\CCCCCCCC(=O)NCC(C)O (centres undefined) | – | 5
82 | NS(=O)(=O)c1cc(C2(O)NC(=O)c3ccccc32)ccc1Cl (centres undefined) | – | 5
83 | CNc1nc(Nc2ccccc2)nc(Nc2ccc(C=Cc3ccc(Nc4nc(NC)nc(Nc5ccccc5)n4)cc3S(=O)(=O)O)c(S(=O)(=O)O)c2)n1 | – | 5
84 | Cc1cc(=O)nc(C(C)(C)O)[nH]1 | – | 5
85 | CCCCCCCCCCCCCCCCCCOP(=O)(O)O | – | 5
86 | CCCCCCCCCC(C)=O | – | 5
87 | C[C@]12CC[C@H]3[C@@H](CC[C@@]45O[C@@H]4C(O)=C(C#N)C[C@]35C)[C@@H]1CC[C@@H]2O | – | 5
88 | CCC(C(=O)NC(=O)NC(C)=O)c1ccccc1 (centres undefined) | – | 5
89 | CC1CC(C)(C)OC(Cn2cncn2)(c2cc3ccccc3o2)O1 (centres undefined) | – | 4
90 | CCCCCCCC/C=C\CCCCCCCCCCCC(=O)O | – | 5
91 | CNC(=O)N(C)c1nc2ccccc2s1 | – | 5
92 | CCOC(=O)C(F)F | – | 5
93 | Cc1ccc(-n2nccn2)c(C(=O)O)c1 | – | 5
94 | CC(SC(=O)c1cccs1)C(=O)NC1CCSC1=O (centres undefined) | – | 5
95 | CNc1cc(OC)c(C(=O)N[C@H]2CCN(Cc3ccccc3)[C@H]2C)cc1Cl | – | 4
96 | COC(=O)CCCCC(=O)OC | – | 5
97 | Cc1ccc2c(c1)c(-c1ccccc1)nn2CCCN(C)C | – | 4
98 | S=P(Oc1ccccc1)(Oc1ccccc1)Oc1ccccc1 | – | 5
99 | Nc1nc2c(ncn2COCCO)c(=O)[nH]1 | – | 5
